# Laboratory results from patent US8063065B2, “Azaindazole compounds as CCR1 receptor antagonists” (Boehringer Ingelheim International GmbH, priority 2008, dated 2011).
# Target: T1, CCR1 (Homo sapiens, UniProt P32246)
# T1 sequence (P32246 1-355): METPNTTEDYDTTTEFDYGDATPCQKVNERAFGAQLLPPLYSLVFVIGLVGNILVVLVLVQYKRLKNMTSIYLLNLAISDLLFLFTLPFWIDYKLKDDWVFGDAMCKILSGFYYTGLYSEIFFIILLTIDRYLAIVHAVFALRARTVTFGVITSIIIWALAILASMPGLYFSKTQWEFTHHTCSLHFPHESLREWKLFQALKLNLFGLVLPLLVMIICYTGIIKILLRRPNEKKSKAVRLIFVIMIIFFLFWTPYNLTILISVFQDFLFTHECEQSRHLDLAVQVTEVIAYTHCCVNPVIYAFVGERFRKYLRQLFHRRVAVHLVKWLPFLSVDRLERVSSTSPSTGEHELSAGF
# Assay: Method B: calcium flux in CCR1 transfected cells (Calcium 4 dye, […] FDSS6000), block of the CCR1/MIP-1α interaction
# Format: cell-based
# Conditions: Method B: Calcium 4 dye, MIP-1alpha at EC80
# Procedure: Compounds are assessed for the ability to block the interaction of CCR1 and MIP-1α in a functional cellular assay measuring calcium flux in CCR1 transfected cells.
# Method B: Non-adherent cells purchased from Chemicon Corporation (HTS005C), stably expressing recombinant CCR1 and G-alpha-16 are grown in RPMI 1640 medium (Mediatech 10-080-CM) supplemented with 10% FBS, 0.4 mg/mL Geneticin and penicillin/streptomycin. On the day of the assay, the cells are loaded with Calcium 4 dye (Molecular Devices R7448) with Probenecid (Invitrogen P346400) at 8E5 cells/mL for 1 hour at room temperature. After 1 hour, they are seeded in a 384-well tissue culture-treated plate at a density of 20,000 cells/well. Appropriately diluted test compound is added to the well to achieve a top concentration of 3,000 nM (diluted 4-fold with 10 doses total). The final concentration of DMSO is 1%. The buffer is HBSS (Invitrogen 14025) with 20 mM HEPES at pH 7.4. The cells incubate 30 minutes at 37 C and then 30 minutes at room temperature. The plates are transferred to the […] FDSS6000 where MIP-1alpha in 1% BSA is added at the EC80 final concentration. All plates must be read within 4 hours of the start of dye-loading. Wells+/−MIP-1alpha containing diluted DMSO instead of compound serve as the controls. Data are analyzed using Activity Base software.
row,Structure (SMILES),IC50
1,"O=C(NCc1cnc(N2CCOCC2)s1)c1cncc2c1cnn2-c1ccc(F)cc1 [1-(4-Fluorophenyl)-1H-pyrazolo[3,4-c]pyridine-4-carboxylic acid (2-morpholin-4-yl-thiazol-5-ylmethyl)-amide]",16 nM
2,"CC[C@H](NC(=O)c1cncc2c1cnn2-c1ccc(F)cc1)c1cccc(S(=O)(=O)CC)n1 [1-(4-Fluorophenyl)-1H-pyrazolo[3,4-c]pyridine-4-carboxylic acid [(S)-1-(6-ethanesulfonyl-pyridin-2-yl)-propyl]-amide]",0.5 nM
3,"O=C(NCc1cnc(N2CCOCC2)nc1)c1cncc2c1cnn2-c1ccc(F)cc1 [1-(4-Fluorophenyl)-1H-pyrazolo[3,4-c]pyridine-4-carboxylic acid (2-morpholin-4-yl-pyrimidin-5-ylmethyl)-amide]",8 nM
4,"COC[C@H](NC(=O)c1cncc2c1cnn2-c1ccc(F)cc1)c1ccnc(Br)c1 [1-(4-Fluorophenyl)-1H-pyrazolo[3,4-c]pyridine-4-carboxylic acid [(R)-1-(2-bromopyridin-4-yl)-2-methoxy-ethyl]-amide]",0.5 nM
5,"CCOC(=O)CS(=O)(=O)c1cc(CNC(=O)c2cncc3c2cnn3-c2ccc(F)cc2)ccn1 [[4-({[1-(4-Fluorophenyl)-1H-pyrazolo[3,4-c]pyridine-4-carbonyl]-amino}-methyl)-pyridine-2-sulfonyl]-acetic acid ethyl ester]",4 nM
6,"CCC(C)(NC(=O)c1cncc2c1cnn2-c1ccc(F)cc1)c1ccnc(Br)c1 (stereo not shown) [1-(4-Fluorophenyl)-1H-pyrazolo[3,4-c]pyridine-4-carboxylic acid [1-(2-bromo-pyridin-4-yl)-1-methyl-propyl]-amide]",11 nM
7,"CC[C@H](NC(=O)c1cncc2c1cnn2-c1ccc(F)cc1)c1cccc(Cl)c1 [1-(4-Fluorophenyl)-1H-pyrazolo[3,4-c]pyridine-4-carboxylic acid [(S)-1-(3-chlorophenyl)-propyl]-amide]",0.4 nM
8,"CC[C@H](NC(=O)c1cncc2c1cnn2-c1ccc(F)cc1)c1ccnc([S@@+](C)[O-])c1 [1-(4-Fluorophenyl)-1H-pyrazolo[3,4-c]pyridine-4-carboxylic acid {(S)-1-[2-((R)-methanesulfinyl)-pyridin-4-yl]-propyl}-amide]",0.6 nM
9,"CC[C@H](NC(=O)c1cncc2c1cnn2-c1ccc(F)cc1)c1cccc(S(=O)(=O)CCC(=O)OC)n1 [3-[6-((S)-1-{[1-(4-Fluorophenyl)-1H-pyrazolo[3,4-c]pyridine-4-carbonyl]-amino}-propyl)-pyridine-2-sulfonyl]-propionic acid methyl ester]",3 nM
10,"CC[C@H](NC(=O)c1cncc2c1cnn2-c1ccc(F)cc1)c1cc(S(C)(=O)=O)c[nH]1 [1-(4-Fluorophenyl)-1H-pyrazolo[3,4-c]pyridine-4-carboxylic acid [(S)-1-(4-methanesulfonyl-1H-pyrrol-2-yl)-propyl]-amide]",1 nM
11,"CC[C@H](NC(=O)c1cncc2c1cnn2-c1ccc(F)cc1)c1cccc(S(C)(=O)=O)n1 [1-(4-Fluorophenyl)-1H-pyrazolo[3,4-c]pyridine-4-carboxylic acid [(S)-1-(6-methanesulfonyl-pyridin-2-yl)-propyl]-amide]",0.2 nM
12,"C[C@H](NC(=O)c1cncc2c1cnn2-c1ccc(F)cc1)c1cccc(Cl)c1 [1-(4-Fluorophenyl)-1H-pyrazolo[3,4-c]pyridine-4-carboxylic acid [(S)-1-(3-chlorophenyl)-ethyl]-amide]",5 nM
13,"CCOC(=O)Cn1cc([C@H](CC)NC(=O)c2cncc3c2cnn3-c2ccc(F)cc2)cn1 [[4-((S)-1-{[1-(4-Fluorophenyl)-1H-pyrazolo[3,4-c]pyridine-4-carbonyl]-amino}-propyl)-pyrazol-1-yl]-acetic acid ethyl ester]",25 nM
14,"CC[C@H](NC(=O)c1cncc2c1cnn2-c1ccc(F)cc1)c1cncc(S(N)(=O)=O)c1 [1-(4-Fluorophenyl)-1H-pyrazolo[3,4-c]pyridine-4-carboxylic acid [(S)-1-(5-sulfamoyl-pyridin-3-yl)-propyl]-amide]",0.3 nM
15,"CC(C)(NC(=O)c1cncc2c1cnn2-c1ccc(F)cc1)c1ccnc(Br)c1 [1-(4-Fluorophenyl)-1H-pyrazolo[3,4-c]pyridine-4-carboxylic acid [1-(2-bromo-pyridin-4-yl)-1-methyl-ethyl]-amide]",14 nM
16,"CC[C@H](NC(=O)c1cncc2c1cnn2-c1ccc(F)cc1)[C@@H]1CCN(S(C)(=O)=O)[C@H](C(N)=O)C1 [1-(4-Fluorophenyl)-1H-pyrazolo[3,4-c]pyridine-4-carboxylic acid [(S)-1-((2S,4R)-2-carbamoyl-1-methanesulfonyl-piperidin-4-yl)-propyl]-amide]",12 nM

# The remaining lines, values ahead:
row,IC50,Structure (SMILES)
1,0.4 nM,"C[C@H](NC(=O)c1cncc2c1cnn2-c1ccc(F)cc1)c1ccnc(Br)c1 [1-(4-Fluorophenyl)-1H-pyrazolo[3,4-c]pyridine-4-carboxylic acid [(S)-1-(2-bromopyridin-4-yl)-ethyl]-amide]"
2,0.3 nM,"CC[C@H](NC(=O)c1cncc2c1cnn2-c1ccc(F)cc1)c1cccc(S(N)(=O)=O)n1 [1-(4-Fluorophenyl)-1H-pyrazolo[3,4-c]pyridine-4-carboxylic acid [(S)-1-(6-sulfamoyl-pyridin-2-yl)-propyl]-amide]"
3,0.2 nM,"CCC[C@@H](NC(=O)c1cncc2c1cnn2-c1ccc(F)cc1)c1ccc(O)c(S(C)(=O)=O)c1 [1-(4-Fluorophenyl)-1H-pyrazolo[3,4-c]pyridine-4-carboxylic acid [(R)-1-(4-hydroxy-3-methanesulfonyl-phenyl)-butyl]-amide]"
4,15 nM,"C[C@H](NC(=O)c1cncc2c1cnn2-c1ccc(F)cc1)c1cccc(S(N)(=O)=O)n1 [1-(4-Fluorophenyl)-1H-pyrazolo[3,4-c]pyridine-4-carboxylic acid [(S)-1-(6-sulfamoyl-pyridin-2-yl)-ethyl]-amide]"
5,17 nM,"CS(=O)(=O)c1ncc(CNC(=O)c2cncc3c2cnn3-c2ccc(F)cc2)s1 [1-(4-Fluorophenyl)-1H-pyrazolo[3,4-c]pyridine-4-carboxylic acid (2-methanesulfonyl-thiazol-5-ylmethyl)-amide]"
6,24 nM,"CC(=O)N(C)c1ncc(CNC(=O)c2cncc3c2cnn3-c2ccc(F)cc2)cn1 [1-(4-Fluorophenyl)-1H-pyrazolo[3,4-c]pyridine-4-carboxylic acid [2-(acetyl-methyl-amino)-pyrimidin-5-ylmethyl]-amide]"
7,12 nM,"CS(=O)(=O)c1cc([C@H](CCO)NC(=O)c2cncc3c2cnn3-c2ccc(F)cc2)ccn1 [1-(4-Fluorophenyl)-1H-pyrazolo[3,4-c]pyridine-4-carboxylic acid [(S)-3-hydroxy-1-(2-methanesulfonyl-pyridin-4-yl)-propyl]-amide]"
8,23 nM,"CC[C@@H](NC(=O)c1cncc2c1cnn2-c1ccc(F)cc1)c1ccn(S(=O)(=O)c2ccc(C)cc2)c1 [1-(4-Fluorophenyl)-1H-pyrazolo[3,4-c]pyridine-4-carboxylic acid {(R)-1-[1-(toluene-4-sulfonyl)-1H-pyrrol-3-yl]-propyl}-amide]"
9,10 nM,"CC[C@H](NC(=O)c1cncc2c1cnn2-c1ccc(F)cc1)[C@@H]1CCN(S(C)(=O)=O)[C@@H](C(N)=O)C1 [1-(4-Fluorophenyl)-1H-pyrazolo[3,4-c]pyridine-4-carboxylic acid [(S)-1-((2R,4R)-2-carbamoyl-1-methanesulfonyl-piperidin-4-yl)-propyl]-amide]"
